Measurements as given in PubChem BioAssay (NCI).
“And” between values parts separate entries of the source, which are not always exact repeats. Equal values may be shown once.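 Protocol summary: plate cells (96-well), add compound at 5 concentrations, incubate 48 h, interpolate endpoints linearly. GI50: concentration for 50% inhibition of growth. TGI denotes the concentration required for complete inhibition of growth.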 Where a SMILES comes first, the peptide text is derived from it. Bridges are numbered along the chain shown (N, C = ends).

Legend:
Test in all cases: NCI-60 cell line screen, 48 h
[1] = tested on: NCI-H522 lung
[2] = tested on: PC-3 prostate
[3] = tested on: SF-295 CNS
[4] = tested on: NCI-H226 lung
[5] = tested on: HS 578T breast
[6] = tested on: HCC-2998 colon
[7] = tested on: T-47D breast
[8] = tested on: MDA-MB-435
[9] = tested on: 786-0 renal
[10] = tested on: M14 melanoma
[11] = tested on: NCI/ADR-RES ovarian

SMILES	TGI [1]	TGI [2] [µM]	TGI [3]	TGI [4]	TGI [5] [µM]	TGI [6]	TGI [7] [µM]	TGI [8] [µM]	TGI [9] [µM]	TGI [10] [µM]	TGI [11]	GI50 [1] [nM]	GI50 [3] [nM]	GI50 [4]	GI50 [6] [nM]	GI50 [11]
COC(=O)[C@@H]1C=CCN1S(=O)(=O)c1ccc(C)cc1	> 100 µM	> 100	> 100 µM	> 100 µM	> 100	> 100 µM	> 100	39.2	> 100	> 100	> 100 µM	–	–	–	–	–
COc1ccc(C2C3=C(COC3=O)Oc3cc4c(cc32)OCO4)cc1OC (stereo not given)	2.19 µM	> 31.3	24 µM	> 100 µM	6.14	4.85 µM	> 100	0.751	> 100	> 100	7.7 µM	–	–	–	–	–
CN1CCC(O)(OC(=O)C(c2ccccc2)C2(O)CCCC2)CC1 (stereo not given)	> 100 µM	> 100	> 100 µM	> 100 µM	> 100	> 100 µM	> 100	> 100	> 100	> 100	> 100 µM	–	–	–	–	–
O=C(NNC(=O)c1ccc(Cl)cc1NC(=O)C12CC3CC(CC(C3)C1)C2)c1ccc(Cl)cc1	36 µM	82.4	57 µM	65.1 µM	46.6	33.4 µM	> 100	35.6	56.1	57.6	63.1 µM	–	–	–	–	–
C[C@@H]1C[C@@H]2OC(=O)[C@]3(C)[C@H]2[C@@H](OC3(C)O)[C@]2(C)C(=O)C=C[C@@H]12 (stereo not given in full)	23.8 µM	> 100	> 100 µM	> 100 µM	> 100	35.1 µM	44.5	66.9	> 100	41.8	> 100 µM	–	–	–	–	–
O=S1(=O)N=C(SCc2c[nH]c3ccccc23)N(c2ccccc2)c2ccncc21	> 100 µM	> 100	> 100 µM	> 100 µM	> 100	> 100 µM	> 100	> 100	65.5	> 100	> 100 µM	–	–	–	–	–
C(=Nc1ccc(-c2nc3ccccc3s2)cc1)c1cccs1	> 100 µM	> 100	68.8 µM	> 100 µM	> 100	> 100 µM	> 100	> 100	> 100	> 100	> 100 µM	–	–	–	–	–
O=C(Oc1cncc(Cl)c1)c1cc2ccccc2sc1=O	47.3 µM	> 100	> 100 µM	57.1 µM	> 100	> 100 µM	> 100	> 100	> 100	> 100	> 100 µM	–	–	–	–	–
COC1(C)CCC(OS(C)(=O)=O)CO1 (stereo not given)	> 100 µM	> 100	> 100 µM	> 100 µM	> 100	> 100 µM	> 100	> 100	> 100	> 100	> 100 µM	–	–	–	–	–
CC(C)=CC(=O)OC1C2C(C)=CC(=O)C(O)C2(C)C2C3(O)OCC24C(CC(=O)OC14)C(C)C3O (stereo not given)	0.011 µM and 0.0215 µM	0.0129	0.154 µM and 0.0672 µM and 0.0966 µM	–	0.00523	0.0532 µM and 0.0278 µM and 0.0513 µM	0.0108	0.0103	0.0834	0.00826	–	20	12.6	20 nM	22.9	6.65 µM and 2.24 µM
C[C@@H]([C@H]1CC[C@@]2(C)[C@@H]3CC[C@@H]4C(=CC3=CC[C@]12C)CC[C@H](N(C)C)C4(C)C)N(C)C	> 100 µM	> 100	> 100 µM	> 100 µM	> 100	> 100 µM	> 100	> 100	> 100	> 100	> 100 µM	–	–	–	–	–
CCN(CC)CC[n+]1ccc2c(C)c3[nH]c4ccccc4c3c(C)c2c1	1.36 µM and 2.58 µM and 1.87 µM	3.18	6.9 µM and 15.1 µM and 6.83 µM	1.89 µM and 2.89 µM and 0.693 µM	0.933	1.52 µM and 1.43 µM and 1.97 µM	1.19	2.14	5.96	3.28	48.1 µM and 125 µM	247	1280	346 nM and 529 nM and 94.4 nM	–	27.2 µM and 43.6 µM and 87.6 µM
O=C(NC1=C(Cl)C(=O)c2ccccc2C1=O)C(=O)c1c(O)c2ccccc2oc1=O	16.1 µM	> 27.1	9.58 µM	28.9 µM	> 65	20.4 µM	23.5	2.97	19	4.4	20 µM	–	–	–	–	–
Oc1ccc(Nc2nc(Cl)c3[nH]cnc3n2)cc1	> 100 µM	> 100	> 100 µM	> 100 µM	> 100	> 100 µM	> 100	> 100	> 100	> 100	> 100 µM	–	–	–	–	–
COc1ccc(Cn2c(=O)c(OS(=O)(=O)C(F)(F)F)c(C)c3cc4ccccc4cc32)cc1	> 100 µM	> 100	> 100 µM	> 100 µM	> 100	> 100 µM	> 100	> 100	> 100	> 100	> 100 µM	–	–	–	–	–
COC(=O)c1ccc(C)cc1C1CN=NC12Cc1cccc(C)c1C2=O (stereo not given)	78.1 µM	70.6	> 100 µM	73.6 µM	> 100	> 100 µM	85.8	37.9	> 100	42.1	67.1 µM	–	–	–	–	–
COC(=O)C1CCC(=O)NCCCCC(NC(=O)C(N)CC(=O)O)C(=O)N1 (stereo not drawn) (H-Asp-Lys-Glu-OMe; lactam 2-3; configuration not given here)	> 100 µM	> 100	> 100 µM	> 100 µM	> 100	> 100 µM	> 100	> 100	> 100	> 100	> 100 µM	–	–	–	–	–
O=[N+]([O-])/C(Cl)=C(\NCCO)C(Cl)=C(Cl)Cl	53 µM	> 100	> 100 µM	> 100 µM	> 91.5	> 100 µM	99.8	> 100	73.8	77.5	> 77.9 µM	–	–	–	–	–
O=C1CC(c2cccc([N+](=O)[O-])c2)C2(C(=O)NC(=S)NC2=O)C(c2cccc([N+](=O)[O-])c2)C1 (stereo not given)	89.6 µM	> 100	> 100 µM	59.9 µM	84.3	59.2 µM	> 100	66.2	> 100	58.5	> 100 µM	–	–	–	–	–
CCOP(=O)(OCC)C(c1ccccc1)N(C(=O)NC(F)(F)F)c1ccc(C)cc1 (stereo not given)	> 100 µM	> 100	> 100 µM	> 100 µM	> 100	> 100 µM	> 100	> 100	> 100	> 100	> 100 µM	–	–	–	–	–
CC(C)=CCNc1ncnc2c1ncn2CCC(=O)O	> 100 µM	> 100	> 100 µM	> 100 µM	> 100	> 100 µM	> 100	> 100	> 100	> 100	> 100 µM	–	–	–	–	–
CCOC(=O)c1cnc2n(c1=O)[C@H]1CCCC[C@@H]1N2	> 100 µM	> 100	> 100 µM	> 100 µM	> 100	> 100 µM	> 100	> 100	> 100	> 100	> 100 µM	–	–	–	–	–
O=C(CCC(NC(=O)OCc1ccccc1)C(=O)OCc1ccccc1)Nc1cccc(OCc2ccccc2)c1 (stereo not given)	70.1 µM	35.9	> 100 µM	> 100 µM	39.4	> 100 µM	> 100	43.1	33.2	38.2	> 100 µM	–	–	–	–	–
